Article PMC12280060, “Design of linear and cyclic peptide binders from protein sequence information” (Communications Chemistry, 2025)
No end group written: not given here.

T1: semi-synthetic Ribonuclease (PDB ID 1SSC), immobilised as MBP-8xHis-1SSC (Bos taurus, UniProt P61823)
T1 construct: made in house; host or cells: E. coli BL21 (DE3) T1R
T1 sequence (P61823 27-138 limits assumed): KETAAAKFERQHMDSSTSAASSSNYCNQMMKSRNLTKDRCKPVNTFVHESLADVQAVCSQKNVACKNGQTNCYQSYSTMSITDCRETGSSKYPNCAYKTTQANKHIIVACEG

T2: semi-synthetic Ribonuclease (PDB ID 1SSC), MBP-8xHis fusion construct (UniProt P61823 27-138)
T2 construct: also called MBP-8xHis-1SSC; psfRNAseA; source: E. coli BL21 (DE3) T1R, purified (IMAC, size exclusion chromatography)
T2 sequence: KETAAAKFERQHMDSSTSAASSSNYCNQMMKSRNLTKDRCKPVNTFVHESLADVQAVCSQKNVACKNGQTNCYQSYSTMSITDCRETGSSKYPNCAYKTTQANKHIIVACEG

B1: known peptide binder (11 residues) of the semi-synthetic Ribonuclease, PYVPVHFDASV (peptide)
peptide: PYVPVHFDASV
notes: also called WT; positive control; source: synthetic peptide

Experiments:
[1] = target: T1, semi-synthetic Ribonuclease (PDB ID 1SSC), immobilised as MBP-8xHis-1SSC; test: biochemical; assay type: binding
[2] = target: T2, semi-synthetic Ribonuclease (PDB ID …); test: SPR; MBP-8xHis-1SSC immobilised to about 12000 RU by amine coupling on a CM5 chip; peptides as analytes, single-cycle kinetics, 2 nM to 20 uM; 25 °C; HBS-EP+ (10 mM HEPES pH 7.4, 3 mM EDTA, 150 mM NaCl, 0.05% Tween-20); Biacore 8K; 1:1 binding model; conditions: both partners purified

Row | Molecule | Kd [1] | Kd [2]
1 | PYVPVHFDASV [PYVPVHFDASV] | 1220 nM | 
2 | B1 |  | 1200 nM
